Laboratory results from patent publication US20210145768A1, “MODULATING IMMUNE RESPONSE VIA TARGETING OF OLFACTORY RECEPTOR ACTIVITY” (La Jolla Institute for Allergy and Immunology, priority 2018, published 2021).
Entries after “also recorded” stand apart in the source; their conditions may differ.

How the values were obtained:
Olfr2 = molecular target: T1, Olfr2 (Mus musculus, UniProt Q9QWU6); assay: Inflammatory gene expression (real time PCR) in explanted whole aortas treated with octanal, citral, LPS; type: cell-based; set-up: Olfr2 expression was confirmed at the protein level on F4/80^+ vascular macrophages; from tissue; host or cells: explanted whole aortas, digested aortic cell suspensions (F4/80+ vascular macrophages) and blood monocytes of Apoe-/- C57BL/6J mice; living Apoe-/- mice for the in vivo study; conditions: for octanal-induced increase in CCL2, CCL4, TNF and iNOS (Nos2) expression: citral 100 μM with octanal 10 μM, in presence and absence of LPS; for mRNA expression of Ccl2, Ccl4, Tnf and Nos2 (iNOS): explanted whole aortas of Apoe−/− mice on WD 2 weeks, octanal 10 μM alone, normalized to Gapdh and untreated control
T1 sequence (Q9QWU6 1-327): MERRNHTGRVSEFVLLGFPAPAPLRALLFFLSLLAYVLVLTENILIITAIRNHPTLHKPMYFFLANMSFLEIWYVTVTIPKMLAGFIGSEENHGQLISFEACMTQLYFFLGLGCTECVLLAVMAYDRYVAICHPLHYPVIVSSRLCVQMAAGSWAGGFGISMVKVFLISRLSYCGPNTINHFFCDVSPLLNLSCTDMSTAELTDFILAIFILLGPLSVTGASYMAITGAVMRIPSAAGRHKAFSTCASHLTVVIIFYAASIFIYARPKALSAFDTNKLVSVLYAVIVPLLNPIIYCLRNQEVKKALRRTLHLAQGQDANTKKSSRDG
Protocol: Gene expression analysis was performed by harvesting whole aortas from apoE^−/− mice kept on western diet (WD) for 2 weeks and treating for 12h with DMSO (Ctrl), citral (Cit, 100 μM), octanal (Oct, 10 μM in DMSO) or lipopolysaccharide (lps, 0.5 μg/mL in DMSO) alone or in combination. After the incubation, aortas were transferred in Trizol reagent (1 ml) and digested with gentleMACS™ Dissociator (Millteny). Total RNA was then purified with RNAse Micro kit (Qiagen) and reverse transcribed using the Omniscript reverse transcriptase kit (Qiagen). Real-time PCR reaction was performed following the RT^2 Sybr green gene expression assay protocol (Qiagen). RT2 SYBR Green qPCR mastermix mix and premade RT^2 qPCR Primer Assay for mouse GAPDH, CCL2, CCL4, TNF, and iNOS were used. Data were normalized to the expression levels of the housekeeping gene GAPDH.
To test physiologic effects of Olfr2 activation in situ, explanted whole aortas of mice (n=5 per group) were treated with octanal with or without LPS. Briefly, whole aortas were left untreated or incubated with the Olfr2 agonist octanal (Oct, 10 μM), LPS, (500 ng/mL), or with both for 12 h. Quantitative Real time PCR reaction was performed to detect Ccl2, Ccl4, Tnf, and Nos2 gene expression. Relative expression was normalized to Gapdh expression and the untreated control. […] TNF secretion by vascular macrophages (F4/80+) was confirmed by intracellular staining using flow cytometry (FIG. 7F).
Apoe^−/− mice were fed WD for 2 weeks before sacrifice for aorta explant culture. Whole aortas were incubated in culture medium with DMSO (0.1% as a vehicle), octanal (Oct, 10 μM), LPS (500 ng/mL) alone or octanal and LPS combined (LPS+Oct) for 12 h at 37° C. and 5% CO2. Subsequently, aortas were collected and further processed as below discussed for RNA extraction, and flow cytometry analysis. Culture supernatants were collected, aliquoted, and frozen at −80° C. until further analysis.
BMDMs and hMDMs were incubated in culture media for 12 h at 37° C. and 5% CO2 with Oct, (10 μM), LPS (500 ng/mL) alone or combined with Oct (LPS+Oct) and DMSO (0.1%) as a control and lysed with Qiazol (500 μL; Qiagen) Similarly, whole aortas incubated as previously described were transferred into Qiazol (500 μl; Qiagen) and digested with gentleMACS™ Dissociator (Miltenyi).
RNA extraction was performed using a Qiazol/RNAeasy micro kit hybrid protocol (Qiagen).
Total RNA was quantified using a nanodrop spectrophotometer (Peqlab) and 500 ng were reverse transcribed into cDNA using Omniscript reverse transcriptase (Qiagen). Real time PCR reactions were performed according to the RT^2 SYBR green gene expression assay protocol (Qiagen). RT2 SYBR Green qPCR master mix and premade RT^2 qPCR Primer Assays for mouse Olfr2, Rtp1, Rtp2, Ccl2, Ccl4, Tnf, Nos2 and Gapdh were used. Similarly, real time PCR analysis of hMDMs samples was performed following the RT^2 SYBR green gene expression assay protocol (Qiagen), applying RT^2 SYBR Green qPCR master mix and premade RT^2 qPCR Primer Assays for human OR6A2, TNF, IL-6, NOS2 and GAPDH. The results were calculated applying the 2^−ΔΔCT method^32 using Gapdh/GAPDH as housekeeping gene.

[1] = Plasma lipids, body weight and hematological parameters in treated Apoe−/− mice; type: in vivo, mouse
Protocol: Male Apoe^−/− mice (9 to 10 wks old) were fed WD for 4 weeks. Oct or Cit were diluted in sterile phosphate buffered saline (PBS) (Gibco) at a final concentration of 10 μg/g. 100 μl were injected intraperitoneally (i.p.) every 3 days for 4 weeks (12 injections total) while maintaining WD administration. PBS+0.1% DMSO (Sigma Aldrich) was injected as a vehicle control following the same protocol. Mice were sacrificed, perfused with PBS implemented with 2% heparin (Fresenius Kabi USA, LLC) and aortas removed for en face atherosclerotic lesion assessment. Mouse whole blood (heart puncture) was collected in EDTA tubes. Leukocyte blood counts were determined with HemaVet 950 (Drew Scientific). Plasma was collected from blood centrifuged at 3000 g for 15 min at 4° C. and stored at −80° C. until further analysis. Lipid analysis of collected plasma was performed by IDEXX BioResearch.

Row | SMILES | octanal-induced increase in CCL2, CCL4, TNF and iNOS (Nos2) expression (Olfr2; explanted aortas, 12 h) | octanal-induced increase in CCL2, CCL4, TNF and iNOS (Nos2) expression (Olfr2; explanted aortas, 12 h, listed as Cit) | other parameters (body weight, hematological, lipids) ([1]; citral-treated Apoe−/− mice) | LPS-induced expression of inflammatory molecules (Ccl2, Ccl4, Tnf, Nos2) (Olfr2; explanted aortas, octanal 10 μM + LPS 500 ng/mL, 12 h) | mRNA expression of Ccl2, Ccl4, Tnf and Nos2 (iNOS) (Olfr2; 12 h) | mRNA expression of Ccl2, Ccl4, Tnf and Nos2 (iNOS) (Olfr2; 12 h, listed as Oct) | LPS induction of CCL2 (MCP-1) and CCL4 (Olfr2; qRT-PCR, octanal + LPS) | iNOS expression induced by LPS (Olfr2; qRT-PCR, octanal + LPS) | TNF expression (Olfr2; qRT-PCR, octanal + LPS, Olfr2 ligation required to reveal LPS-induced increase) | CCL2 and CCL4 expression (Olfr2; qRT-PCR, octanal alone (without LPS)) | total cholesterol, LDL cholesterol, HDL cholesterol or triglycerides ([1]; octanal-treated Apoe−/− mice)
1 | CC(C)=CCCC(C)=CC=O [citral] | completely blocked; also recorded: effective at curbing inflammatory mediator expression | reduced | no effect | – | – | – | – | – | – | – | –
2 | CCCCCCCC=O [octanal] | – | – | – | exacerbate the inflammatory response; also recorded: significantly enhances; also recorded: enhanced the LPS-induced expression | induces expression of inflammatory mediators; also recorded: induced mRNA expression | induces pro-inflammatory gene expression | significantly enhanced | greatly enhanced | greatest effect | measurable increase | no effect
